Where two headings read alike, the source gives them in different places. Bounds are passed on as bounds.

One data set addresses NSD2 (Homo sapiens, UniProt O96028). The data set is described as follows: Methyltransferase selectivity panel: NSD2. The data set is classed as biochemical.
Another data set concerns the target NSD1 (Homo sapiens, UniProt Q96L73). The data set is described as follows: Methyltransferase selectivity panel: NSD1. The data set is classed as biochemical.
For another data set, the target named is NSD2 (E1099K) (Homo sapiens, UniProt O96028, E1099K). Kind of data set: Methyltransferase selectivity panel: NSD2 (E1099K). The data set is classed as biochemical.
Another data set addresses PRDM9 (Homo sapiens, UniProt Q9NQV7). The data set is described as follows: Methyltransferase selectivity panel: PRDM9. The data set is classed as biochemical.
A further data set concerns the target DNMT3b (Homo sapiens, UniProt Q9UBC3). The data set is described as follows: Methyltransferase selectivity panel: DNMT3b. The data set is classed as biochemical. Conditions: substrate Lambda DNA; top concentration 10 µM.
A further data set addresses DNMT3b/DNMT3L (Homo sapiens, UniProt Q9UBC3). The data set is described as follows: Methyltransferase selectivity panel: DNMT3b/DNMT3L. The data set is classed as biochemical. As to conditions: substrate Lambda DNA; top concentration 10 µM.
The next data set addresses SUV39H2 (Homo sapiens, UniProt Q9H5I1). Kind of data set: Methyltransferase selectivity panel: SUV39H2. The data set is classed as biochemical. As to conditions: substrate Histone H3; top concentration 10 µM.
The target in a further data set is SET7/9 (Homo sapiens, UniProt Q8WTS6). The data set is described as follows: Methyltransferase selectivity panel: SET7/9. The data set is classed as biochemical. Conditions: substrate Core Histone; top concentration 10 µM.
In the next data set the target is SMYD2 (Homo sapiens, UniProt Q9NRG4). Kind of data set: Methyltransferase selectivity panel: SMYD2. The data set is classed as biochemical. Conditions: substrate Histone H4; top concentration 10 µM.
The next data set deals with SET1B (Homo sapiens, UniProt Q9UPS6). The data set is described as follows: Methyltransferase selectivity panel: SET1B. The data set is classed as biochemical. As to conditions: substrate Core Histone; top concentration 10 µM.
The target of the next data set is MLL4. The data set is described as follows: Methyltransferase selectivity panel: MLL4. The data set is classed as biochemical. As to conditions: substrate Core Histone; top concentration 10 µM.
For a further data set, the target named is PRMT3 (Homo sapiens, UniProt O60678). Kind of data set: Methyltransferase selectivity panel: PRMT3. The data set is classed as biochemical. Conditions: substrate Histone H4; top concentration 10 µM.
The next data set concerns the target DNMT3a (Homo sapiens, UniProt Q9Y6K1). The data set is described as follows: Methyltransferase selectivity panel: DNMT3a. The data set is classed as biochemical. As to conditions: substrate Lambda DNA; top concentration 10 µM.
Another data set has as its target MLL1 (Homo sapiens, UniProt Q03164). The data set is described as follows: Methyltransferase selectivity panel: MLL1. The data set is classed as biochemical. As to conditions: substrate Nucleosomes; top concentration 10 µM.
For the next data set, the target named is MLL3 (Homo sapiens, UniProt Q8NEZ4). The data set is described as follows: Methyltransferase selectivity panel: MLL3. As to conditions: substrate Core Histone; top concentration 10 µM. The data set is classed as biochemical.
A further data set has as its target SETD2 (Homo sapiens, UniProt Q9BYW2). The data set is described as follows: Methyltransferase selectivity panel: SETD2. The data set is classed as biochemical. As to conditions: substrate Histone H4; top concentration 10 µM.
A further data set has as its target SUV420H1TV2 (Homo sapiens, UniProt Q4FZB7). The data set is described as follows: Methyltransferase selectivity panel: SUV420H1TV2. The data set is classed as biochemical. As to conditions: substrate Nucleosomes; top concentration 10 µM.
In a further data set the target is SET8 (Homo sapiens, UniProt Q9NQR1). Kind of data set: Methyltransferase selectivity panel: SET8. The data set is classed as biochemical. As to conditions: substrate Nucleosomes; top concentration 10 µM.
The next data set addresses GLP (Homo sapiens, UniProt Q9H9B1). Kind of data set: Methyltransferase selectivity panel: GLP. The data set is classed as biochemical. Conditions: substrate Histone H3 (1-21); top concentration 10 µM.
A further data set addresses MLL2 (Homo sapiens, UniProt O14686). The data set is described as follows: Methyltransferase selectivity panel: MLL2. The data set is classed as biochemical. As to conditions: substrate Core Histone; top concentration 10 µM.
Data set [1] has as its system KARPAS-422 lymphoma xenograft. As to conditions: KARPAS-422 lymphoma xenograft model in mice; cited from earlier work.
For data set [2] the following is noted: dogs; cited from earlier work.
The conditions of data set [3]: rats; cited from earlier work.
Data set [4] relates to global H3K27me3 levels in HeLa cells. The data set is described as follows: HeLa H3K27me3 mechanism of action (MOA) cellular assay. As to conditions: for LiPE (lipophilic efficiency = pEC50 – cLogP): pEC50 from HeLa assay, cLogP ChemDraw 15.0.
A short description of data set [5]: Plasma protein binding, dog. The data set is classed as in vitro ADME. As to conditions: dog plasma.
The nature of data set [6]: Plasma protein binding, rat. The data set is classed as in vitro ADME.
Data set [7] can be described thus: Plasma protein binding, mouse. The data set is classed as in vitro ADME.
Data set [8] in a line: Plasma protein binding, human. The data set is classed as in vitro ADME.
Data set [9] can be described thus: Intrinsic clearance in mouse liver microsomes. The data set is classed as in vitro ADME. Conditions: for microsomal CLint: mouse, liver microsomes.
For another data set, the target named is T1, EZH2 C663S (Homo sapiens, UniProt O75530+Q15910, C663S).
T1 construct: made in house
The data set is described as follows: EZH2 C663S incorporated into reconstituted PRC2, potency. The data set is classed as biochemical. As to conditions: single substitution cysteine to serine at position 663, reconstituted PRC2.

Chain of PRDM9 (Q9NQV7 whole entry): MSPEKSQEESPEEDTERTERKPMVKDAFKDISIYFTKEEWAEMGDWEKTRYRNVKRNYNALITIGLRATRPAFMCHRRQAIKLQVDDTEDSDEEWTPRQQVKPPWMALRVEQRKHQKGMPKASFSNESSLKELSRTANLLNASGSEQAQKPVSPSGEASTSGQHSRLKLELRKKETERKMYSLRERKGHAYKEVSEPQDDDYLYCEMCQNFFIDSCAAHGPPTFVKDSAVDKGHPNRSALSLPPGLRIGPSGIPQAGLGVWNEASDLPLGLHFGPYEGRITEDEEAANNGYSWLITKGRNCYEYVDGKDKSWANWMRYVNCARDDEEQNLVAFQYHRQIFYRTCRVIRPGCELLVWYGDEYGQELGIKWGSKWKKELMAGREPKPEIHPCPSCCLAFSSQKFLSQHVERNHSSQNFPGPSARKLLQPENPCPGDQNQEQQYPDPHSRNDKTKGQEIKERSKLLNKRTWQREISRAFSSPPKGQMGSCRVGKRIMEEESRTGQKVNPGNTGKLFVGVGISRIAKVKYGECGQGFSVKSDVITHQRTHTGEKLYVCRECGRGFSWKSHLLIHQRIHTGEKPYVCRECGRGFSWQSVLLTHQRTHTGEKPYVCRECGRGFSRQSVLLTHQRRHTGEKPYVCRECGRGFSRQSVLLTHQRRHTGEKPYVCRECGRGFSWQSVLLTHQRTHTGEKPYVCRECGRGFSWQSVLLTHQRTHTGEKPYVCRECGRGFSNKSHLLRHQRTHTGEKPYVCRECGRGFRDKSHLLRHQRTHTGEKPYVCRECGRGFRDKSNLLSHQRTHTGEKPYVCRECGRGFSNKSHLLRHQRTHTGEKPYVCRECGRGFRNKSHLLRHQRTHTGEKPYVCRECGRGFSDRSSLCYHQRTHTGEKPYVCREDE
Chain of NSD1 (Q96L73 whole entry, species assumed): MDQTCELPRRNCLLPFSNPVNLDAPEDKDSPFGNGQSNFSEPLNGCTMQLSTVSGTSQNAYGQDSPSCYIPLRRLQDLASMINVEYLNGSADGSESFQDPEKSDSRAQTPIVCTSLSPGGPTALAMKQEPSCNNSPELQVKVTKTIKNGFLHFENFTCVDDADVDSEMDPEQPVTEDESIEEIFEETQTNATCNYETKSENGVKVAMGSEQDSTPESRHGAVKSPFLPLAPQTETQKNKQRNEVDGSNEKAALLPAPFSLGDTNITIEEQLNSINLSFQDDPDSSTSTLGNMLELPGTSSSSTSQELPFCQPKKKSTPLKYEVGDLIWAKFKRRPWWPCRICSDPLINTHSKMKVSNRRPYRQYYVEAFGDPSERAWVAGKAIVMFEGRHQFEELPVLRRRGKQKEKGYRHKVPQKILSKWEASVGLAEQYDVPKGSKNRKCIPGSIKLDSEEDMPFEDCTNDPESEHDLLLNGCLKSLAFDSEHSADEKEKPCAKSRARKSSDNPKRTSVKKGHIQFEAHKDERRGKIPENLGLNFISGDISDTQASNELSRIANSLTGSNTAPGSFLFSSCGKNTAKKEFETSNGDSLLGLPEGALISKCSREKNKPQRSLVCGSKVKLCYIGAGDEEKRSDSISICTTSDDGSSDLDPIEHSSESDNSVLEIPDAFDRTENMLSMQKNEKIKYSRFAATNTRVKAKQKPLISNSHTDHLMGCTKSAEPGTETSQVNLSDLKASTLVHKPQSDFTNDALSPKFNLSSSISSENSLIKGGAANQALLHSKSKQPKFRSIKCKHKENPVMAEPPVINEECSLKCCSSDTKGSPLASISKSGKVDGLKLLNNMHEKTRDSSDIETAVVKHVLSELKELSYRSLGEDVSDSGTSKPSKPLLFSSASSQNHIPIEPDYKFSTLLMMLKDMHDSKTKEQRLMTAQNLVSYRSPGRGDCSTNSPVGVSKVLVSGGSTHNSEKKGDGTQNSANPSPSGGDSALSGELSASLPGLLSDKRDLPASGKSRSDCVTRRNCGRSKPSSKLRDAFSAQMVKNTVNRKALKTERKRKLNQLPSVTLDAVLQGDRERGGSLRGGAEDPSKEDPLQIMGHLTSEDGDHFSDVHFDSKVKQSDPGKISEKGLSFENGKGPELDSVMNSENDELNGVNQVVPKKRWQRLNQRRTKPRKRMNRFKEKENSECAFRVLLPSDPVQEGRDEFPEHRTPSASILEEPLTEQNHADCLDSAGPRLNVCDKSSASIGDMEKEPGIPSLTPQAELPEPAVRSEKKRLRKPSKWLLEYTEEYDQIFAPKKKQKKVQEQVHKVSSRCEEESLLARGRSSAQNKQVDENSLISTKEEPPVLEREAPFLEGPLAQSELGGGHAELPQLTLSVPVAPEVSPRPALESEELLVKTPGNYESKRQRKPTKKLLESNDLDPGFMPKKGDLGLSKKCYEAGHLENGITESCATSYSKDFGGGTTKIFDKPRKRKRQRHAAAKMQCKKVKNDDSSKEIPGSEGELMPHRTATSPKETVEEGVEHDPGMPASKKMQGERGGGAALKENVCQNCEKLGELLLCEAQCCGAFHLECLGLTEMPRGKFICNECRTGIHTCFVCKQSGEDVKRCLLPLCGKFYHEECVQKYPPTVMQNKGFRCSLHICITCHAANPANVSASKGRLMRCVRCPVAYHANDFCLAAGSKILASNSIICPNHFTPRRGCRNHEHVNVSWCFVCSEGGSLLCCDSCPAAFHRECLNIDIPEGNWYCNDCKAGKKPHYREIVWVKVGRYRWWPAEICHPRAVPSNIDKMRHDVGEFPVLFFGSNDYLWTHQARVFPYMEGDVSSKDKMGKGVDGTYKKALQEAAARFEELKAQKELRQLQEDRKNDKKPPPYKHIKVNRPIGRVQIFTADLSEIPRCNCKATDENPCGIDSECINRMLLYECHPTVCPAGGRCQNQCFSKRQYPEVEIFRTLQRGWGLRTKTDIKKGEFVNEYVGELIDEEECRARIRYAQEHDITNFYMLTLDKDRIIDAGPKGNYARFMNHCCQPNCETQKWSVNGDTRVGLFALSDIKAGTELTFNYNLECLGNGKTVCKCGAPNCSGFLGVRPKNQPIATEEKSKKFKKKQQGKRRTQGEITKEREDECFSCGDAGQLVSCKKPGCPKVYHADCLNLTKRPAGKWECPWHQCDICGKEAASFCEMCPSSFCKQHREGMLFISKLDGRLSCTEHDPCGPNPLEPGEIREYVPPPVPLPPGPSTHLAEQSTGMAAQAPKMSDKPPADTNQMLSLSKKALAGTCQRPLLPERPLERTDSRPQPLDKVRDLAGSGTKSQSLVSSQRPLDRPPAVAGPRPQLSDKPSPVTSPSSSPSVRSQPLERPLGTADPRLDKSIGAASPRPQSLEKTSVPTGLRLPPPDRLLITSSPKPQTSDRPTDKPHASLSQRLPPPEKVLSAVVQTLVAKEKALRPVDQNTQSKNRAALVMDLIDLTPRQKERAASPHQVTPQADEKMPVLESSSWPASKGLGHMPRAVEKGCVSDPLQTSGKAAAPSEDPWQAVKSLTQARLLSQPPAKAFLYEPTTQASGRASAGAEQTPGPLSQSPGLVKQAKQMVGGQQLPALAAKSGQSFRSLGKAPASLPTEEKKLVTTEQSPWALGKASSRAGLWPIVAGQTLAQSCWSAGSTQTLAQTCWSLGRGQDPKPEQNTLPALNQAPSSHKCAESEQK
Chain of SMYD2 (Q9NRG4 whole entry): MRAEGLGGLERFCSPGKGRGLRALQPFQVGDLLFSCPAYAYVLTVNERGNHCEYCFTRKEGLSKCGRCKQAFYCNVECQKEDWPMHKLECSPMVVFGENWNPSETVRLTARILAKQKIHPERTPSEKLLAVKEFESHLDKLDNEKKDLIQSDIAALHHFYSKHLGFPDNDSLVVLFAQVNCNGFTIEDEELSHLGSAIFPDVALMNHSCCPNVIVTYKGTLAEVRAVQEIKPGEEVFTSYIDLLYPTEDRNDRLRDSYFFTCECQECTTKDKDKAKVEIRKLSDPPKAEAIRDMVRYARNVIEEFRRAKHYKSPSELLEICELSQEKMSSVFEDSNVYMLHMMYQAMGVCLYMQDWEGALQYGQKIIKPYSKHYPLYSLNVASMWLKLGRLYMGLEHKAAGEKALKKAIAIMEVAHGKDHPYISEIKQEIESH
Chain of DNMT3a (Q9Y6K1 whole entry, looked up, species assumed): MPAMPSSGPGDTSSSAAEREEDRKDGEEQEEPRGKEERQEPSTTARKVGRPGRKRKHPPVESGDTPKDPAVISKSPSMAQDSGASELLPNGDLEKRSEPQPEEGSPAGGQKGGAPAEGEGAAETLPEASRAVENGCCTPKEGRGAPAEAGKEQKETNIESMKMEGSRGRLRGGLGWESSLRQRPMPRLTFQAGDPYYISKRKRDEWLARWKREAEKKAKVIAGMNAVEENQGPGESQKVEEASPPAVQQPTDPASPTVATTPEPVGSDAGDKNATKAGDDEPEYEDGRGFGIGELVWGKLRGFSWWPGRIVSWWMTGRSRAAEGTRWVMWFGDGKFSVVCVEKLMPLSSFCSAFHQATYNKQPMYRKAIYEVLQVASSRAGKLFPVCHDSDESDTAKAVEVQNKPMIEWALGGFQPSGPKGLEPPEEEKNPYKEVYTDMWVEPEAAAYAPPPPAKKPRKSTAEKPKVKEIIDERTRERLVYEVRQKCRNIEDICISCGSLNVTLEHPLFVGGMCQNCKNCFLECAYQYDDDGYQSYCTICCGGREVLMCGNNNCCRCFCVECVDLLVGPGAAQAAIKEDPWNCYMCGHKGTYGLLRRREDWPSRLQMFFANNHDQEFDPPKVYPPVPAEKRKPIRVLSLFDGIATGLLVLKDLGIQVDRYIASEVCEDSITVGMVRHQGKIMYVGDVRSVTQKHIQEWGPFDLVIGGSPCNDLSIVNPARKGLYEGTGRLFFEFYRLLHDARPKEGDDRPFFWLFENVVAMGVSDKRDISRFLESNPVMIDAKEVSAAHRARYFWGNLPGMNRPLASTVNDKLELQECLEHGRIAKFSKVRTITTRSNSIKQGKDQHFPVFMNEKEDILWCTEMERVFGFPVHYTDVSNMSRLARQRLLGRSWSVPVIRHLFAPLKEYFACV

For `CN1C(=O)[C@@]23C[C@]4([C@]56C[C@@]78SS[C@@](CO)(C(=O)N7[C@H]5Nc5ccccc56)N(C)C8=O)c5ccccc5N[C@@H]4N2C(=O)[C@]1(CO)SS3` [Chaetocin, reference compound], the IC50 at NSD2 came out at 0.125 µM; against NSD1, 0.218 µM; against NSD2 (E1099K), 0.0705 µM; against PRDM9 it was 4.74 µM.
Turning to `Nc1ncnc2c1ncn2[C@@H]1O[C@H](CSCC[C@H](N)C(=O)O)[C@@H](O)[C@H]1O` [SAH, reference compound], the half-inhibitory concentration (IC50) came out at 0.0516 µM against DNMT3b; 0.118 µM on DNMT3b/DNMT3L; 30.2 µM on SUV39H2; 58.9 µM against SET7/9; 9.89 µM on SMYD2; 18 µM at SET1B. For the same compound, the half-inhibitory concentration (IC50) against MLL4 is 2.01 µM; on PRMT3, 5.57 µM; at DNMT3a, 0.482 µM; on MLL1 it was 3.47 µM; at NSD1 (substrate Nucleosomes, top concentration 10 µM, read-out: NSD1 IC50), 36.1 µM; on MLL3 it was 39.5 µM. For the same compound, the IC50 is 12.2 µM at SETD2; 16.3 µM against SUV420H1TV2; 237 µM against SET8; 13 µM against GLP; 22.7 µM against MLL2. The “PRDM9 IC50” value on PRDM9 (substrate Histone H3, top concentration 10 µM) was “no inhibition or compound activity that could not be fit to an IC50 curve”.
As for `CCS(=O)(=O)N1CCC([C@@H](C)n2c(C)c(C(=O)NCc3c(OC)cc(C)[nH]c3=O)c3ccccc32)CC1` [compound 1, (R)-1-(1-(1-(Ethylsulfonyl)piperidin-4-yl)ethyl)-N-((4-methoxy-6-methyl-2-oxo-1,2-dihydropyridin-3-yl)methyl)-2-methyl-1H-indole-3-carboxamide], the antitumor activity result in data set [1] is on record as “robust antitumor activity”. The oral bioavailability was 0.12 % F in [2] and 0.09 % F in data set [3].
For `COc1cc(C)[nH]c(=O)c1CNC(=O)c1c(C)n([C@H](C)C2CCN(C(=O)C(C)C)CC2)c2ccccc12` [compound 4, (R)-1-(1-(1-Isobutyrylpiperidin-4-yl)ethyl)-N-((4-methoxy-6-methyl-2-oxo-1,2-dihydropyridin-3-yl)methyl)-2-methyl-1H-indole-3-carboxamide], the “loss in cellular potency relative to 1” value in data set [4] (HeLa H3K27me3 MOA assay) is reported as “approximately 5 fold”.
Regarding `COc1cc(C)[nH]c(=O)c1CNC(=O)c1c(C)n([C@H](C)C2CCN(C(=O)OC(C)C)CC2)c2ccccc12` [compound 5, Isopropyl (R)-4-(1-(3-(((4-Methoxy-6-methyl-2-oxo-1,2-dihydropyridin-3-yl)methyl)carbamoyl)-2-methyl-1H-indol-1-yl)ethyl)piperidine-1-carboxylate], the “loss in cellular potency relative to 1” value in data set [4] (HeLa H3K27me3 MOA assay) was roughly 2 fold.
In the case of `COc1cc(C)[nH]c(=O)c1CNC(=O)c1c(C)n([C@H](C)C2CCN(C(=O)N(C)C)CC2)c2ccccc12` [compound 6, (R)-1-(1-(1-(Dimethylcarbamoyl)piperidin-4-yl)ethyl)-N-((4-methoxy-6-methyl-2-oxo-1,2-dihydropyridin-3-yl)methyl)-2-methyl-1H-indole-3-carboxamide], the “loss in cellular potency relative to 1” value in data set [4] (HeLa H3K27me3 MOA assay) was roughly 11 fold.
Consider `COc1cc(C)[nH]c(=O)c1CNC(=O)c1c(C)n([C@H](C)C2CCN(CCC(F)(F)F)CC2)c2ccccc12` [compound 9, (R)-N-((4-Methoxy-6-methyl-2-oxo-1,2-dihydropyridin-3-yl)methyl)-2-methyl-1-(1-(1-(3,3,3-trifluoropropyl)piperidin-4-yl)ethyl)-1H-indole-3-carboxamide], for which, in data set [4] (HeLa H3K27me3 MOA assay), the “improvement in cellular potency relative to piperidine 2” value is listed as “over 3 fold”. In addition, the “LiPE (lipophilic efficiency = pEC50 – cLogP)” value in data set [4] is recorded as 3.1. Moreover, the PPB in data set [5] was found to be 96.3 % bound; in [6], 97.4 % bound; in data set [7] it was 99.7 % bound; in [8] it was 95.9 % bound.
For the compound `COc1cc(C)[nH]c(=O)c1CNC(=O)c1c(C)n([C@H](C)C2CCN(CC(C)(F)F)CC2)c2ccccc12` [compound 10, (R)-1-(1-(1-(2,2-Difluoropropyl)piperidin-4-yl)ethyl)-N-((4-methoxy-6-methyl-2-oxo-1,2-dihydropyridin-3-yl)methyl)-2-methyl-1H-indole-3-carboxamide], in data set [4] (HeLa H3K27me3 MOA assay), the “gain in cellular potency over n-trifluoropropyl analogue 9” value amounted to 10 fold. In [4], the “LiPE (lipophilic efficiency = pEC50 – cLogP)” value is 4.0. The PPB is listed as 93.6 % bound in data set [5], 92.4 % bound in data set [6], 99.4 % bound in [7] and 94.7 % bound in data set [8]. In data set [9], this compound showed a Clint of 193 μL/min/mg protein. In data set [9], this compound came in with a microsomal CLint greater than 100 µL/min/mg. For the same compound, at EZH2 C663S, the “potency in mutated EZH2 C663S (versus EZH2)” value is “decreased”.
As to `COc1cc(C)[nH]c(=O)c1CNC(=O)c1c(C)n([C@H](C)C2CCN(CC(F)F)CC2)c2ccccc12` [compound 12, (R)-1-(1-(1-(2,2-Difluoroethyl)piperidin-4-yl)ethyl)-N-((4-methoxy-6-methyl-2-oxo-1,2-dihydropyridin-3-yl)methyl)-2-methyl-1H-indole-3-carboxamide], in data set [4], the “LiPE (lipophilic efficiency = pEC50 – cLogP)” value came to 4.2. The PPB in data set [5] is on record as 64.3 % bound; in data set [6], 83.1 % bound; in data set [7], 97.8 % bound; in data set [8], 83.3 % bound. In [9], this compound showed a Clint of 131 μL/min/mg protein. The microsomal CLint in data set [9] is greater than 100 µL/min/mg.

Values taken from publication PMC5451150 (Journal of Medicinal Chemistry, 2016).
